Source: patent US10995260B2, “Methods for determining an optimal surfactant structure for oil recovery” (University of Wyoming, priority 2017, dated 2021)

Assay: Dynamic interfacial tension of surfactant solution/crude oil (rising/captive bubble tensiometry)
Format: physicochemical
Conditions: time for IFT to reach half of its value between γo and γm; 0.1% wt surfactant, municipal water/crude oil, ambient conditions
Procedure: Interfacial tension tests were carried out in accordance with the invention. Dynamic IFT and contact angles were measured using rising/captive bubble tensiometry enhanced by image acquisition with a high-resolution Charged Coupled Device (CCD) digital camera and apochromatically-corrected lens. The apparatus includes a Hastelloy measurement cell, a Hastelloy dual-cylinder pulse-free Quizix pump (to provide constant flow rate and pressure), a temperature control module, a data acquisition computer, an oven, and an in-line density meter (Anton Paar DMA HPM) to measure the density of fluids at actual experimental conditions. The system tolerates reservoir conditions with pressures and temperatures up to 10,000 psi and 150° C., respectively (V. Mirchi, S. Saraji, L. Goual, M. Piri, Dynamic interfacial tension and wettability of shale in the presence of surfactants at reservoir conditions, Fuel, vol. 148, pp. 127-138, 2015).
For IFT measurements, after establishing ambient (e.g., 14.7 psi and 20° C.) or reservoir conditions (e.g., 6840 psi and 120° C.) in a cell saturated with brine, a bubble of crude oil was created inside the measurement cell through a needle (0.3-1.6 mm outside diameter). Images of oil bubbles were captured at 5-second intervals to measure dynamic interfacial tension. IFT values were obtained by fitting the drop profile to the Young-Laplace equation using Axisymetric Drop Shape Analysis (ADSA) software.
A series of dynamic IFT measurements with municipal water and crude oil were performed at ambient conditions to examine the surface activity of selected surfactants. FIGS. 5A-5F present dynamic IFT results of a homologous series of nonionic surfactant solutions with 0.1% wt concentration, which is above the critical micelle concentration (CMC) of all the surfactants studied. The size of the hydrophobic and hydrophilic parts of the surfactants were altered independently and their impact on oil/brine interfacial tension was investigated.
In addition, the dynamic IFT of certain surfactants was measured at reservoir conditions. In particular, the impact of elevated temperatures and pressures on the performance of these surfactants was evaluated. IFT values of crude oil and surfactant solutions were measured at 6840 psi and 120° C.
As shown by Equation 1, three typical regions of dynamic IFT reduction exist: (I) induction region, (II) rapid fall region, and (III) mesoequilibrium region (X. Y. Hua, M. J. Rosen, Dynamic surface tension of aqueous surfactant solutions: I. Basic parameters, Journal of Colloid and Interface Science, vol. 124, no. 2, pp. 652-659, 1988). log(γ0−γt)−log(γt−γm)=n log t−n log t* (1)
In Equation 1, γt is the IFT of surfactant solution at time t, γm is the mesoequilibrium interfacial tension (when γt is almost stabilized), γo is the IFT in the absence of surfactant, and t* is the required time for IFT to reach half of its value between γo and γm. The value of n is a constant number related to the structure of surfactants and correlates to the difference between surfactants' adsorption and desorption. Increasing nonionic surfactants' polyoxyethylene chain length reduces the value of n (T. Gao, M. J. Rosen, Dynamic surface tension of aqueous surfactant solutions: 7. physical significance of dynamic parameters and the induction period, Journal of Colloid and Interface Science, vol. 172, no. 1, pp. 242-248, 1995).

“CH3(CH2)8-10(OC2H4)2.5OH [CH2 8-10, EO 2.5]” and “CH3(CH2)8-10(OC2H4)6-6.5OH [CH2 8-10, EO 6]” are within 1.5-fold of each other in “t*” value: 16.5 min for the first, 12.3 min for the second.

“CH3(CH2)8-10(OC2H4)8.3OH [CH2 8-10, EO 8]” and “CH3(CH2)11-13(OC2H4)8.2OH [CH2 11-14, EO 8.2]” are within 1.5-fold of each other in “t*” value: 11.6 min for the first, 7.83 min for the second.

Compared with “CH3(CH2)11-14(OC2H4)3OH [CH2 11-14, EO 3]”, “CH3(CH2)11-14(OC2H4)7.25OH [CH2 11-14, EO 7.25]” is 2.5-fold lower in “t*” value: 23 min for the first, 9.3 min for the second.
